# US9856212B1, “Biphenyl compounds and applications thereof” (Shenyang Sinochem Agrochemicals R&D Co., Ltd., priority 2017, dated 2018)
# Tests used:
# Format in all cases: in vivo
# [1] = system: egg of spider mite (Tetranychuscinnabarinus); test: Test against egg of spider mite, greenhouse spray; conditions: eggs, 5 days
# Method: Two true leaves of bean plants were taken and one true leaf was removed. Then ten healthy female adult spider mites were put into the true leaf. The adult spider mites were removed after 24 h and the eggs were investigated. The solution of certain concentrations of test compounds was sprayed by using a sprinkler. Three replicates were set for each treatment. The untreated eggs were all incubated after 5 days. The unincubation of treated eggs in leaf was observed, and incubation inhibition rate of the eggs was determined.
# [2] = system: deutonymph of spider mite (Tetranychuscinnabarinus); test: Test against deutonymph of spider mite, greenhouse spray; conditions: after 72 h
# Method: Ten healthy female adult spider mites (Tetranychuscinnabarinus) were put into two true leaves of bean plants. The adult spider mites were removed after 24 h and the eggs were to be continued incubating. After ten days, the number of deutonymph were investigated and recorded. The solution of certain concentrations of test compounds was sprayed by using a sprinkler. Three replicates were set for each treatment. Then the deutonymph of spider mites were maintained in standard observation room. After 72 h, the survival mites in each leaf were observed, and mortality of the mites was determined.
# [3] = system: adult spider mites (Tetranychuscinnabarinus); test: Test against adult spider mite, greenhouse spray on bean leaves; conditions: after 72 h
# Method: The adult spider mites (Tetranychuscinnabarinus) were put into two true leaves of bean plants. After the number of mites were investigated, the solution of certain concentrations of test compounds was sprayed by using a sprinkler. Three replicates were set for each treatment. Then the leaves were maintained in standard observation room. After 72 h the survival mites in each leaf were observed, and mortality of the mites was determined.
# spider mites = test: Test of systemic activity against spider mite through root absorption; conditions: root absorption 24 h, mites on bean leaves, after 72 h
# Method: The high acaricidal compound 1 were dissolved in acetone, and then diluted with 0.1% aqueous solution of Tween 80 to form test solution in different concentration. Three replicates were set for each treatment. Water is blank control. The 10 ml compound 1 solution was added into the tube. Two true leaves bean plants were taken and the soil in the root was removed. The bean plant was dipped into the test solution in different concentration. After absorbing 24 h, 30 to 50 spider mites were put onto the true leaves. Then the bean plants were maintained in observation room at 25±1° C. After 72 h, the death and survival mites in each leaf was observed, the mortality of the mites and systemic activity was determined.
# [4] = system: citrus red mite (Panonychuscitri); test: Field trial against citrus red mite (Jiangxi, China); conditions: orange orchard
# Method: The trial was carried out in a 2-year-old Shatang orange orchard in Ganzhou city Jiangxi province, trifoliate orange trees were selected as stocks, the intervals between two plants was 1.50×2.50 m, the average height was 1.45 m and the crown width was 1.30 m. Two trees were selected in each plot, with random arrangement and 4 replications. Compound 1 (10% SC) was set at three different doses (100 mg/L, 50 mg/L and 25 mg/L), spirodiclofen (29% SC) was set at one dose (50 mg/L), and pyridaben (20% EC) was set at one dose (100 mg/L). MatabiSupergreen 16 Knapsack Sprayer 16 Liter was used to spray evenly with 2 L of spraying volume for each plant. The plants were treated once in May at that time, adults, nymphs, eggs of citrus red mite all existed, with adults/eggs=1/1.2. During the day the plants were treated, and the weather was good with the average temperature at 24° C. The first three days after treatment were all clear days. The number of mites was investigated before treatment and on the 1st, 3rd, 7th, 14th, 22nd and 28th day after treatment respectively. Two trees of each plot were investigated according to the five directions of the tree crown (east, south, west, north and central), 5 leaves in each direction were investigated to calculate the number of living mites, with 50 leaves each plot. The decline rate of mite population and corrected efficacy were calculated according to formulas below: The decline rate of mite population (%)=[(the average number of mite on each leaf before treatment−the average number of mite on each leaf after treatment)/the average number of mite on each leaf before treatment]×100. Corrected efficacy (%)=[(the decline rate of mite population in treated area−the decline rate of mite population in untreated area)/(100−the decline rate of mite population in untreated area)]×100.
# [5] = 50 mg/L, the 1st day after treatment
# [6] = 50 mg/L, the 3rd day after treatment
# [7] = 50 mg/L, the 7th day after treatment
# [8] = 50 mg/L, the 14th day after treatment
# [9] = 50 mg/L, the 22nd day after treatment
# [10] = 50 mg/L, the 28th day after treatment
# [11] = 100 mg/L, the 1st day after treatment
# [12] = 100 mg/L, the 3rd day after treatment
# [13] = 100 mg/L, the 7th day after treatment
# [14] = 100 mg/L, the 14th day after treatment
# [15] = 100 mg/L, the 22nd day after treatment
# [16] = 100 mg/L, the 28th day after treatment
structure (smiles),measurement,setting,value
Cc1cc(F)c(-c2cc(SCC(F)(F)F)c(C)cc2F)cc1SCC(F)(F)F [Compound 1],Incubation inhibition rate (%),[1]; 0.25 mg/L,18%
same,Incubation inhibition rate (%),[1]; 1 mg/L,34%
same,Incubation inhibition rate (%),[1]; 5 mg/L,100%
same,Mortality (%),[2]; 0.25 mg/L,64%
same,Mortality (%),[2]; 0.5 mg/L,97%
same,Mortality (%),[2]; 1 mg/L,100%
same,Mortality (%),[3]; 5 mg/L,100%
same,Mortality (%),[3]; 100 mg/L,100%
same,Mortality (%),spider mites; 50 mg/L,80%
same,Mortality (%),spider mites; 200 mg/L,88%
same,Corrected efficacy (%),"[4]; 25 mg/L, the 1st day after treatment",9%
same,Corrected efficacy (%),"[4]; 25 mg/L, the 3rd day after treatment",53%
same,Corrected efficacy (%),"[4]; 25 mg/L, the 7th day after treatment",74%
same,Corrected efficacy (%),"[4]; 25 mg/L, the 14th day after treatment",77%
same,Corrected efficacy (%),"[4]; 25 mg/L, the 22nd day after treatment",75%
same,Corrected efficacy (%),"[4]; 25 mg/L, the 28th day after treatment",73%
same,Corrected efficacy (%),[4]; [5],18%
same,Corrected efficacy (%),[4]; [6],87%
same,Corrected efficacy (%),[4]; [7],92%
same,Corrected efficacy (%),[4]; [8],91%
same,Corrected efficacy (%),[4]; [9],92%
same,Corrected efficacy (%),[4]; [10],92%
same,Corrected efficacy (%),[4]; [11],25%
same,Corrected efficacy (%),[4]; [12],89%
same,Corrected efficacy (%),[4]; [13],97%
same,Corrected efficacy (%),[4]; [14],99%
same,Corrected efficacy (%),[4]; [15],99%
same,Corrected efficacy (%),[4]; [16],98%
Cc1cc(F)c(-c2cc([S+]([O-])CC(F)(F)F)c(C)cc2F)cc1SCC(F)(F)F (centres unmarked) [Compound 2],Mortality (%),[3]; 100 mg/L,100%
Cc1cc(F)c(-c2cc([S+]([O-])CC(F)(F)F)c(C)cc2F)cc1[S+]([O-])CC(F)(F)F (centres unmarked) [Compound 3],Mortality (%),[3]; 100 mg/L,100%
Cc1cc(F)c(-c2cc(SCC(F)F)c(C)cc2F)cc1SCC(F)F [Compound 62],Mortality (%),[3]; 100 mg/L,100%
Cc1cc(F)c(-c2cc([S+]([O-])CC(F)F)c(C)cc2F)cc1SCC(F)F (centres unmarked) [Compound 63],Mortality (%),[3]; 100 mg/L,100%
"CC(C)(C)c1ccc(CSc2cnn(C(C)(C)C)c(=O)c2Cl)cc1 [pyridaben, reference compound]",Mortality (%),[2]; 0.25 mg/L,25%
same,Mortality (%),[2]; 0.5 mg/L,60%
same,Mortality (%),[2]; 1 mg/L,84%
same,Corrected efficacy (%),[4]; [11],0%
same,Corrected efficacy (%),[4]; [12],65%
same,Corrected efficacy (%),[4]; [13],90%
same,Corrected efficacy (%),[4]; [14],93%
same,Corrected efficacy (%),[4]; [15],92%
same,Corrected efficacy (%),[4]; [16],95%
"CCC(C)(C)C(=O)OC1=C(c2ccc(Cl)cc2Cl)C(=O)OC12CCCCC2 [spirodiclofen, reference compound]",Incubation inhibition rate (%),[1]; 0.25 mg/L,13%
same,Incubation inhibition rate (%),[1]; 1 mg/L,37%
same,Incubation inhibition rate (%),[1]; 5 mg/L,100%
same,Corrected efficacy (%),[4]; [5],20%
same,Corrected efficacy (%),[4]; [6],48%
same,Corrected efficacy (%),[4]; [7],63%
same,Corrected efficacy (%),[4]; [8],80%
same,Corrected efficacy (%),[4]; [9],71%
same,Corrected efficacy (%),[4]; [10],70%
